# Results: US6635234B1, “Preparation and use of radium-223 to target calcified tissues for pain palliation, bone cancer therapy, and bone surface conditioning” (Anticancer Therapeutic Inventions AS, priority 1999, dated 2003)
# Values joined by “and” are separate entries in the source; they are usually repeats but may differ in a detail not shown here. Identical values can stand only once.
# Columns and labels:
# [1] = bone samples; after radium-226 had been administered to dogs; cited from earlier work
# [2] = system: MT-1 human breast cancer cells; conditions: treatment seven days after tumour cell inoculation; cited from earlier work
# [3] = Gamma spectroscopy of the 211Bi:223Ra ratio in tissues versus a standard solution; type: in vivo, Balb/C mice
# Method: (§1) Methods: Young male Balb/C mice with a body weight of 19-21 g were injected with 9 kBq of ^223Ra in 150 μl of isotonic saline. Groups of five animals were sacrificed and dissected at 6 h and 3 days after injection. Sample weight was measured and samples were counted using (A) a “well type” NaI scintillation crystal (Harshaw Chemie BV, De Meern, Holland) combined with a Scaler Timer ST7 (NE Technology Ltd, Reading, UK) digital unit, (B) a Beckman LS 6500 (Beckman Instruments Inc. Fullerton, Calif., USA). Relative abundances of radionuclides were studied in blood, liver, kidney, and in standard samples with mother/daughter in equilibrium, using a Ge-detector (Canberra, Meriden, Conn., USA) combined with an amplifier and bias supply from EG&G Ortec (Oak Ridge, Tenn., USA).
# The ratio of ^211Bi: ^223Ra was in the spleen at the 6 hour point on average 54% compared to a standard solution. In liver and kidneys on the other hand, the ^211Bi: ^223Ra ratios in the samples were on the average 256 and 207% of the standards respectively. […] Also the ^211Bi activity in soft tissues was in general very low compared to bone activity of this nuclide. The ^211Bi in the soft tissues may have been generated from ^223Ra present in soft tissues.
# [4] = Biodistribution of radium-223 in Balb/C mice; type: in vivo; conditions: for % of injected dose per gram, femur: 9 kBq in isotonic saline
# Method: as §1
# [5] = Release of daughter isotopes from fragmented femur washed with PBS; type: in vivo, mice
# Method: To study potential release of daughter isotopes after ^223Ra was incorporated in bone, due to either nuclear recoil or diffusion processes, femurs from five animals killed 6 h, and 5 animals killed 3 days after injection were examined.
# Methods: The bones were cleaved longitudinally, to expose the red marrow (spongious) areas, and thereafter cut into small fragments of less than 3 mg. Thereafter the samples were washed with Dulbeccos PBS (Sigma-Aldrich CO. LTD., Irvine, UK) using centrifugation. The supernatant was removed, mixed with scintillation liquid (Insta-Gel 11 plus, Packard BioScience BV, Groningen, The Netherlands) and counted on a scintillation counter (Beckman Instruments Inc. Fullerton, Calif., USA). After one day sample counting was repeated. A difference in counts after correcting for ^223Ra decay between the two measurements was used as indication of release of daughter nuclide(s) from bone matrix.
# [6] = system: MT-1 human breast cancer cells; assay: MT-1/nude rat model of skeletal metastases; type: in vivo, nude rats
# Excerpt: It has been developed animal models with experimental metastasis pattern resembling those frequently observed in human patients (Engebraaten and Fodstad, 1999). One of these models consists of MT-1 cells injected intracardially into nude rats and is characterized by the consistent development of hind leg paralysis in the animals.
# Method: The therapeutic potential of radium-223 was studied in the MT-1/nude rat model where animals were inoculated with 1×10^6 MT-1 human breast cancer cells by injection into the left ventricle of the heart as described (Engebraaten and Fodstad,. 1999). These animals usually develop paralysis caused by growth of tumours in the spine. Groups of 4 and 5 animals each were then treated seven days later by receiving an intravenous injection of 200 μl of a vehicle solution without or with 10 kBq of radium-223 according to the invention.
# [7] = Localization Index (211Bi vs 223Ra retention) in femur by gamma spectroscopy; type: in vivo, mice; conditions: average
# Method: To examine if there was a difference in radioisotope retention between radium-223 and bismuth-211 in bone samples, gamma spectroscopic data for bone versus a standard solution with ^223Ra and daughter radionuclides in equilibrium was studied.
# Methods: Gamma spectroscopy with a germanium detector (Canberra, Meriden, Conn., USA) was performed on samples of femur from mice immediately after sacrificing and dissecting the animals. Samples of a standard solution of ^223Ra and daughter radionuclides in equilibrium were studied. The distinct gamma peaks at 351.0 keV (^211Bi) and 154.2 keV (^223Ra) were used. A Localization Index (LI) was determined as follows:
# E.g., BBi−^211Bi count rate in bone; SRa−^223Ra count rate in standard
# Gamma spectra from five samples from the 6 h group and the 3 days group respectively were compared, to five and three samples from the standard solution respectively, using Student t-test for data columns.
smiles,measurement,setting,value
[226Ra] [radium-226],Radon-222 escaped from the bone,[1],89.5-94.25%
N.N.[Cl][Pt][Cl] [cisplatin],Effect on survival,[2],did not improve survival
[223Ra] [radium-223],Difference in relative distribution of radium-223 and its daughters (abundance of 211Bi),"[3]; bone and most soft tissues, gamma spectroscopy",no significant difference
same,"Ratio of 211Bi:223Ra, % of the standards","[3]; kidneys, average",207%
same,"Ratio of 211Bi:223Ra, % of the standards","[3]; liver, average",256%
same,Ratio of 211Bi:223Ra compared to a standard solution,"[3]; spleen, 6 hour point, average",54%
same,Femur to blood ratio,[4]; 6 h after injection,129
same,Femur to spleen ratio,[4]; 6 h after injection,6.4
same,Concentration in bone compared to soft tissues,[4]; 6 h and 3 days,selectively concentrated in bone
same,Femur to blood ratio,[4]; 3 days after injection,691
same,Femur to spleen ratio,[4]; 3 days after injection,23.7
same,"% of injected dose per gram, blood",[4]; 6 hours,0.20 ± 0.23 % of injected dose per gram
same,"% of injected dose per gram, blood",[4]; 3 days,0.05 ± 0.10 % of injected dose per gram
same,"% of injected dose per gram, brain",[4]; 6 hours,0.04 ± 0.01 % of injected dose per gram
same,"% of injected dose per gram, brain",[4]; 3 days,0.12 ± 0.12 % of injected dose per gram
same,"% of injected dose per gram, femur",[4]; 6 hours after injection,25.86 ± 1.99 % of injected dose per gram
same,"% of injected dose per gram, femur",[4]; 3 days after injection,34.55 ± 7.87 % of injected dose per gram
same,"% of injected dose per gram, heart",[4]; 6 hours,0.10 ± 0.10 % of injected dose per gram
same,"% of injected dose per gram, heart",[4]; 3 days,0.06 ± 0.07 % of injected dose per gram
same,"% of injected dose per gram, kidney",[4]; 6 hours,4.04 ± 0.33 % of injected dose per gram
same,"% of injected dose per gram, kidney",[4]; 3 days,0.38 ± 0.08 % of injected dose per gram
same,"% of injected dose per gram, large intestine",[4]; 6 hours,2.30 ± 0.60 % of injected dose per gram
same,"% of injected dose per gram, large intestine",[4]; 3 days,0.13 ± 0.02 % of injected dose per gram
same,"% of injected dose per gram, liver",[4]; 6 hours,0.89 ± 0.18 % of injected dose per gram
same,"% of injected dose per gram, liver",[4]; 3 days,0.22 ± 0.32 % of injected dose per gram
same,"% of injected dose per gram, lung",[4]; 6 hours,0.59 ± 0.56 % of injected dose per gram
same,"% of injected dose per gram, lung",[4]; 3 days,0.06 ± 0.07 % of injected dose per gram
same,"% of injected dose per gram, muscle",[4]; 6 hours,0.72 ± 0.39 % of injected dose per gram
same,"% of injected dose per gram, muscle",[4]; 3 days,0.30 ± 0.16 % of injected dose per gram
same,"% of injected dose per gram, small intestine",[4]; 6 hours,0.79 ± 0.26 % of injected dose per gram
same,"% of injected dose per gram, small intestine",[4]; 3 days,0.04 ± 0.03 % of injected dose per gram
same,"% of injected dose per gram, spleen",[4]; 6 hours,4.06 ± 1.4 % of injected dose per gram
same,"% of injected dose per gram, spleen",[4]; 3 days,1.46 ± 0.54 % of injected dose per gram
same,"Activity dissolved in PBS during washing, compared to the total activity in bone","[5]; animals killed after 6 hours, average",1.8%
same,Translocation of daughter isotopes from bone,"[5]; animals killed after 6 hours, probably",less than 2%
same,"Activity of washing solutions counted again, of the bone sample","[5]; animals killed after 6 hours, recounted after 12 h, average",0.2%
same,Counts in the washing solution compared to the background,[5]; animals killed after 3 days,no significant counts
same,"Translocation, below detection limit, of the total bone radioactivity","[5]; animals killed after 3 days, estimated detection limit",less than 1%
same,Anti-tumour effect in animals with skeletal metastases,[6]; 10 kBq i.v.,significant anti-tumour effect
same,Time to paralysis after tumour cell inoculation (individual animals),"[6]; 10 kBq i.v. seven days after inoculation, group of five animals, listed as 223Ra",26 days and 40 days and 64 days
same,"Survival without signs of paralysis, two remaining animals (follow-up period)","[6]; 10 kBq i.v. seven days after inoculation, two of five animals",≥ 90 days
same,Localization Index LI=(BBi/SBi)/(BRa/SRa),"[7]; 6 h point, P=0.059",0.85
same,Localization Index LI=(BBi/SBi)/(BRa/SRa),"[7]; 3 day point, P=0.749",0.97
COc1cccc2c1C(=O)c1c(O)c3c(c(O)c1C2=O)C[C@@](O)(C(=O)CO)C[C@@H]3O[C@H]1C[C@H](N)[C@H](O)[C@H](C)O1 [doxorubicin],Effect on survival,[2],did not improve survival
